Numbers after ± are expanded uncertainties.
Experiments:
[1] = xn = mol fraction of the nth substance listed; details: 101 kPa, Liquid, Vibrating tube method
[2] = excess molar enthalpy (molar enthalpy of mixing); xn = mol fraction of the nth substance listed; details: 101 kPa, Liquid, Calvet calorimetry

CCCOC(C)=O [propyl ethanoate] + CCCCCC
Details | excess molar enthalpy [kcal/mol] | mass density [kg/m3]
[1], 291.15 K, x1 = 0.012 | – | 663.4 ± 0.3
[1], 291.15 K, x1 = 0.0372 | – | 668 ± 0.3
[1], 291.15 K, x1 = 0.0924 | – | 678.5 ± 0.3
[1], 291.15 K, x1 = 0.1648 | – | 692.7 ± 0.3
[1], 291.15 K, x1 = 0.2357 | – | 707 ± 0.3
[1], 291.15 K, x1 = 0.3085 | – | 722.2 ± 0.3
[1], 291.15 K, x1 = 0.3804 | – | 737.7 ± 0.3
[1], 291.15 K, x1 = 0.442 | – | 751.4 ± 0.3
[1], 291.15 K, x1 = 0.5117 | – | 767.2 ± 0.3
[1], 291.15 K, x1 = 0.5781 | – | 782.6 ± 0.3
[1], 291.15 K, x1 = 0.64 | – | 797.3 ± 0.3
[1], 291.15 K, x1 = 0.702 | – | 812.3 ± 0.3
[1], 291.15 K, x1 = 0.7697 | – | 829.1 ± 0.4
[1], 291.15 K, x1 = 0.8208 | – | 842.2 ± 0.4
[1], 291.15 K, x1 = 0.8835 | – | 858.4 ± 0.4
[1], 291.15 K, x1 = 0.9247 | – | 869.3 ± 0.4
[1], 291.15 K, x1 = 1 | – | 889.6 ± 0.2
[1], 298.15 K, x1 = 0.0175 | – | 658 ± 0.3
[1], 298.15 K, x1 = 0.035 | – | 661.2 ± 0.3
[1], 298.15 K, x1 = 0.0831 | – | 670.3 ± 0.3
[1], 298.15 K, x1 = 0.1535 | – | 683.9 ± 0.3
[1], 298.15 K, x1 = 0.2218 | – | 697.6 ± 0.3
[1], 298.15 K, x1 = 0.2836 | – | 710.3 ± 0.3
[1], 298.15 K, x1 = 0.3539 | – | 724.9 ± 0.3
[1], 298.15 K, x1 = 0.4197 | – | 739.4 ± 0.3
[1], 298.15 K, x1 = 0.4795 | – | 752.7 ± 0.3
[1], 298.15 K, x1 = 0.5417 | – | 766.9 ± 0.3
[1], 298.15 K, x1 = 0.604 | – | 781.5 ± 0.3
[1], 298.15 K, x1 = 0.6583 | – | 794.5 ± 0.3
[1], 298.15 K, x1 = 0.7242 | – | 810.6 ± 0.3
[1], 298.15 K, x1 = 0.7772 | – | 823.9 ± 0.4
[1], 298.15 K, x1 = 0.8357 | – | 838.9 ± 0.4
[1], 298.15 K, x1 = 0.8934 | – | 853.9 ± 0.4
[1], 298.15 K, x1 = 0.9187 | – | 860.5 ± 0.4
[1], 298.15 K, x1 = 0.9749 | – | 875.7 ± 0.4
[1], 298.15 K, x1 = 1 | – | 882.5 ± 0.2
[1], 318.15 K, x1 = 0.0304 | – | 641.7 ± 0.3
[1], 318.15 K, x1 = 0.0796 | – | 650.7 ± 0.3
[1], 318.15 K, x1 = 0.1381 | – | 661.7 ± 0.3
[1], 318.15 K, x1 = 0.2079 | – | 675.3 ± 0.3
[1], 318.15 K, x1 = 0.2642 | – | 686.6 ± 0.3
[1], 318.15 K, x1 = 0.3318 | – | 700.5 ± 0.3
[1], 318.15 K, x1 = 0.3997 | – | 714.9 ± 0.3
[1], 318.15 K, x1 = 0.4505 | – | 725.9 ± 0.3
[1], 318.15 K, x1 = 0.5124 | – | 739.7 ± 0.3
[1], 318.15 K, x1 = 0.5708 | – | 752.9 ± 0.3
[1], 318.15 K, x1 = 0.622 | – | 764.8 ± 0.3
[1], 318.15 K, x1 = 0.6815 | – | 778.9 ± 0.3
[1], 318.15 K, x1 = 0.7426 | – | 793.7 ± 0.3
[1], 318.15 K, x1 = 0.7992 | – | 807.7 ± 0.4
[1], 318.15 K, x1 = 0.8648 | – | 824.4 ± 0.4
[1], 318.15 K, x1 = 0.9227 | – | 839.3 ± 0.4
[1], 318.15 K, x1 = 1 | – | 859.8 ± 0.2
[1], 328.15 K, x1 = 0.0253 | – | 631.3 ± 0.3
[1], 328.15 K, x1 = 0.0749 | – | 640.2 ± 0.3
[1], 328.15 K, x1 = 0.1369 | – | 651.6 ± 0.3
[1], 328.15 K, x1 = 0.2052 | – | 664.7 ± 0.3
[1], 328.15 K, x1 = 0.2719 | – | 677.8 ± 0.3
[1], 328.15 K, x1 = 0.3322 | – | 690.1 ± 0.3
[1], 328.15 K, x1 = 0.3986 | – | 704 ± 0.3
[1], 328.15 K, x1 = 0.4614 | – | 717.6 ± 0.3
[1], 328.15 K, x1 = 0.5209 | – | 730.7 ± 0.3
[1], 328.15 K, x1 = 0.5809 | – | 744.3 ± 0.3
[1], 328.15 K, x1 = 0.62 | – | 753.3 ± 0.3
[1], 328.15 K, x1 = 0.6944 | – | 770.8 ± 0.3
[1], 328.15 K, x1 = 0.7605 | – | 786.8 ± 0.3
[1], 328.15 K, x1 = 0.8114 | – | 799.4 ± 0.4
[1], 328.15 K, x1 = 0.8707 | – | 814.4 ± 0.4
[1], 328.15 K, x1 = 0.9235 | – | 828 ± 0.4
[1], 328.15 K, x1 = 1 | – | 848.3 ± 0.2
[2], 291.15 K, x1 = 0.074 | 0.0657 ± 0.00143 | –
[2], 291.15 K, x1 = 0.1514 | 0.13 ± 0.00167 | –
[2], 291.15 K, x1 = 0.2307 | 0.179 ± 0.00191 | –
[2], 291.15 K, x1 = 0.3056 | 0.2204 ± 0.00215 | –
[2], 291.15 K, x1 = 0.3758 | 0.2481 ± 0.00215 | –
[2], 291.15 K, x1 = 0.4417 | 0.2598 ± 0.00215 | –
[2], 291.15 K, x1 = 0.4984 | 0.2651 ± 0.00215 | –
[2], 291.15 K, x1 = 0.5492 | 0.2605 ± 0.00215 | –
[2], 291.15 K, x1 = 0.5528 | 0.2598 ± 0.00215 | –
[2], 291.15 K, x1 = 0.6101 | 0.2459 ± 0.00215 | –
[2], 291.15 K, x1 = 0.6705 | 0.2275 ± 0.00215 | –
[2], 291.15 K, x1 = 0.7361 | 0.1953 ± 0.00191 | –
[2], 291.15 K, x1 = 0.8064 | 0.157 ± 0.00167 | –
[2], 291.15 K, x1 = 0.8762 | 0.111 ± 0.00143 | –
[2], 291.15 K, x1 = 0.9422 | 0.0588 ± 0.00143 | –
[2], 298.15 K, x1 = 0.0319 | 0.0246 ± 0.00143 | –
[2], 298.15 K, x1 = 0.0736 | 0.0648 ± 0.00143 | –
[2], 298.15 K, x1 = 0.145 | 0.126 ± 0.00167 | –
[2], 298.15 K, x1 = 0.2223 | 0.178 ± 0.00191 | –
[2], 298.15 K, x1 = 0.3011 | 0.2225 ± 0.00215 | –
[2], 298.15 K, x1 = 0.366 | 0.2481 ± 0.00215 | –
[2], 298.15 K, x1 = 0.4223 | 0.2639 ± 0.00215 | –
[2], 298.15 K, x1 = 0.503 | 0.2682 ± 0.00239 | –
[2], 298.15 K, x1 = 0.559 | 0.2615 ± 0.00215 | –
[2], 298.15 K, x1 = 0.6073 | 0.2495 ± 0.00215 | –
[2], 298.15 K, x1 = 0.6518 | 0.234 ± 0.00215 | –
[2], 298.15 K, x1 = 0.7091 | 0.2089 ± 0.00191 | –
[2], 298.15 K, x1 = 0.7653 | 0.177 ± 0.00191 | –
[2], 298.15 K, x1 = 0.8334 | 0.136 ± 0.00167 | –
[2], 298.15 K, x1 = 0.8989 | 0.0899 ± 0.00143 | –
[2], 298.15 K, x1 = 0.9494 | 0.0466 ± 0.00143 | –
[2], 318.15 K, x1 = 0.0748 | 0.0691 ± 0.00143 | –
[2], 318.15 K, x1 = 0.1298 | 0.122 ± 0.00167 | –
[2], 318.15 K, x1 = 0.2004 | 0.176 ± 0.00191 | –
[2], 318.15 K, x1 = 0.2777 | 0.2249 ± 0.00215 | –
[2], 318.15 K, x1 = 0.3479 | 0.2529 ± 0.00215 | –
[2], 318.15 K, x1 = 0.4119 | 0.2674 ± 0.00239 | –
[2], 318.15 K, x1 = 0.4746 | 0.2739 ± 0.00239 | –
[2], 318.15 K, x1 = 0.5084 | 0.2729 ± 0.00239 | –
[2], 318.15 K, x1 = 0.5582 | 0.2694 ± 0.00239 | –
[2], 318.15 K, x1 = 0.6039 | 0.2581 ± 0.00215 | –
[2], 318.15 K, x1 = 0.6543 | 0.2419 ± 0.00215 | –
[2], 318.15 K, x1 = 0.7123 | 0.2185 ± 0.00191 | –
[2], 318.15 K, x1 = 0.7753 | 0.185 ± 0.00191 | –
[2], 318.15 K, x1 = 0.8288 | 0.147 ± 0.00167 | –
[2], 318.15 K, x1 = 0.8906 | 0.0997 ± 0.00143 | –
[2], 318.15 K, x1 = 0.9452 | 0.0535 ± 0.00143 | –

From the NIST ThermoML archive (doi:10.1021/je3011979)
